Laboratory results taken from ChEMBL document CHEMBL1208749 (2010).

Tested on: 3T3-L1
Experiment: Glucose uptake enhancing activity in insulin-stimulated mouse 3T3L1 cells at 10 uM after 4 days by FLIPR based 2-DG uptake assay relative to control
Type: functional

## O=c1cc(-c2ccc(O)cc2)oc2c([C@@H]3O[C@H](CO)[C@@H](O)[C@H](O)[C@H]3O)c(O)cc(O)c12
  fold change (FC): 1.1

## O=c1c(-c2ccc(O)cc2)coc2c([C@@H]3O[C@H](CO)[C@@H](O)[C@H](O)[C@H]3O)c(O)ccc12 [PUERARIN]
  fold change (FC): 1.5

## O=C1c2c(O)cc(O)c([C@@H]3O[C@H](CO)[C@@H](O)[C@H](O)[C@H]3O)c2OCC1c1ccc(O)cc1 (stereo partly drawn)
  fold change (FC): 1.1

## O=c1c(-c2ccc(O)cc2)coc2c(CC(O)CO)c(O)ccc12 (stereo not drawn)
  fold change (FC): 1.5

## O=c1c(-c2ccc(O)cc2)coc2cc(O)c([C@H]3O[C@@H](CO)[C@H](O)[C@@H](O)[C@@H]3O)c(O)c12
  fold change (FC): 1.5

## O=c1c(-c2ccc(O)cc2)coc2cc(O[C@@H]3O[C@H](CO)[C@@H](O)[C@H](O)[C@H]3O)ccc12 [DAIDZIN]
  fold change (FC): 1.15

## O=c1c(-c2ccc(O)cc2)coc2cc(O)ccc12 [DAIDZEIN]
  fold change (FC): 1.5

## O=c1c(-c2ccc(O[C@@H]3O[C@H](CO)[C@@H](O)[C@H](O)[C@H]3O)cc2)coc2cc(O)ccc12
  fold change (FC): 1.15
